{
  "source": "paper PMC5513037",
  "about": "“Examining the influence of specificity ligands and ATP-competitive ligands on the overall effectiveness of bivalent kinase inhibitors” (Proteome Science, 2017)",
  "assay_in_all_cases": "KAM-matrix competition in K562 lysate;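 on 0.001 uM KAM: median log10 fold change of treatment over DMSO control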;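 on 0.01 uM KAM: median log10 fold change of treatment over DMSO control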;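 on 0.1 uM KAM: median log10 fold change of treatment over DMSO control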;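 on 1 uM KAM: median log10 fold change of treatment over DMSO control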;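 on 10 uM KAM: median log10 fold change of treatment over DMSO control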",
  "format_in_all_cases": "binding",
  "key": {"CLK2": {"target": "T1, CLK2 (Homo sapiens, UniProt P49760)", "T1 construct": "endogenous in cells; host or cells: K562", "T1 sequence (P49760 whole entry)": "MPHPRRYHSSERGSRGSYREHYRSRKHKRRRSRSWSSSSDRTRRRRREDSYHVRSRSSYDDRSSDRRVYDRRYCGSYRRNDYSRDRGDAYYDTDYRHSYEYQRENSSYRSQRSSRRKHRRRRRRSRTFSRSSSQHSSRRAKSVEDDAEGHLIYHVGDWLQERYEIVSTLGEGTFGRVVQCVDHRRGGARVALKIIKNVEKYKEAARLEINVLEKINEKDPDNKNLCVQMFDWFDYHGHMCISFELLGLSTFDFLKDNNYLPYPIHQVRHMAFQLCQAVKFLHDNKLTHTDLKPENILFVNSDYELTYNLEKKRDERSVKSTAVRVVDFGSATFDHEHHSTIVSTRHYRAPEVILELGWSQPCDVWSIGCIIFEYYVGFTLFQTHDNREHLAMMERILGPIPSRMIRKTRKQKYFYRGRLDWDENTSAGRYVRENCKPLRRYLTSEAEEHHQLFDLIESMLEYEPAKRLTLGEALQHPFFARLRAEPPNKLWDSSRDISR", "description": "(§1) Supplement 12953_2017_125_MOESM1_ESM.zip/MS_Supp Info.xlsx, sheet \"KAM\" | column: 10 uM KAM; 1 uM KAM; 0.1 uM KAM; 0.01 uM KAM; 0.001 uM KAM; RB50"}, "MAPK7": {"target": "T2, MAPK7 (Homo sapiens, UniProt Q13164)", "T2 construct": "endogenous in cells; host or cells: K562", "T2 sequence (Q13164 whole entry)": "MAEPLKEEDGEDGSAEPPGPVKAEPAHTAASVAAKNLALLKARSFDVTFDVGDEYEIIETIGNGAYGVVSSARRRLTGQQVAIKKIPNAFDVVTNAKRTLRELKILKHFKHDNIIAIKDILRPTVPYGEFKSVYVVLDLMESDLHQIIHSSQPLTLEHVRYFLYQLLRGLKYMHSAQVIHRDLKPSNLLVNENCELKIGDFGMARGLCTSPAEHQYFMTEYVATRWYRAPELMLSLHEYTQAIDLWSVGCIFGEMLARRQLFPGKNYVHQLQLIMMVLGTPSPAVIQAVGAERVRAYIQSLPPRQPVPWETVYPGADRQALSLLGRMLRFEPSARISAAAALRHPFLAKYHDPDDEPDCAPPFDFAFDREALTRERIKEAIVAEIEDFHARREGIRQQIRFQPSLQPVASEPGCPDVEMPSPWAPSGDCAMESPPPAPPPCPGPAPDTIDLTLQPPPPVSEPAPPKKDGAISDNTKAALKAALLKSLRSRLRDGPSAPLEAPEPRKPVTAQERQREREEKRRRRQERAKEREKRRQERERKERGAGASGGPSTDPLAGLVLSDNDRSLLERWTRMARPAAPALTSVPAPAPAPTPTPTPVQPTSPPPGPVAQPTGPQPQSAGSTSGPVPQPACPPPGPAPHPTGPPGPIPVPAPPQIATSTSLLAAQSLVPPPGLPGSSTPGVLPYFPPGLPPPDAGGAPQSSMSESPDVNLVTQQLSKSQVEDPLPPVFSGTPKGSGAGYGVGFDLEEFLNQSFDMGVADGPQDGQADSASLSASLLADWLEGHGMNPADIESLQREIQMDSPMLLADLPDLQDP", "description": "as §1"}, "MAST4": {"target": "T3, MAST4 (Homo sapiens, UniProt O15021)", "T3 construct": "endogenous in cells; host or cells: K562", "T3 sequence (O15021 whole entry)": "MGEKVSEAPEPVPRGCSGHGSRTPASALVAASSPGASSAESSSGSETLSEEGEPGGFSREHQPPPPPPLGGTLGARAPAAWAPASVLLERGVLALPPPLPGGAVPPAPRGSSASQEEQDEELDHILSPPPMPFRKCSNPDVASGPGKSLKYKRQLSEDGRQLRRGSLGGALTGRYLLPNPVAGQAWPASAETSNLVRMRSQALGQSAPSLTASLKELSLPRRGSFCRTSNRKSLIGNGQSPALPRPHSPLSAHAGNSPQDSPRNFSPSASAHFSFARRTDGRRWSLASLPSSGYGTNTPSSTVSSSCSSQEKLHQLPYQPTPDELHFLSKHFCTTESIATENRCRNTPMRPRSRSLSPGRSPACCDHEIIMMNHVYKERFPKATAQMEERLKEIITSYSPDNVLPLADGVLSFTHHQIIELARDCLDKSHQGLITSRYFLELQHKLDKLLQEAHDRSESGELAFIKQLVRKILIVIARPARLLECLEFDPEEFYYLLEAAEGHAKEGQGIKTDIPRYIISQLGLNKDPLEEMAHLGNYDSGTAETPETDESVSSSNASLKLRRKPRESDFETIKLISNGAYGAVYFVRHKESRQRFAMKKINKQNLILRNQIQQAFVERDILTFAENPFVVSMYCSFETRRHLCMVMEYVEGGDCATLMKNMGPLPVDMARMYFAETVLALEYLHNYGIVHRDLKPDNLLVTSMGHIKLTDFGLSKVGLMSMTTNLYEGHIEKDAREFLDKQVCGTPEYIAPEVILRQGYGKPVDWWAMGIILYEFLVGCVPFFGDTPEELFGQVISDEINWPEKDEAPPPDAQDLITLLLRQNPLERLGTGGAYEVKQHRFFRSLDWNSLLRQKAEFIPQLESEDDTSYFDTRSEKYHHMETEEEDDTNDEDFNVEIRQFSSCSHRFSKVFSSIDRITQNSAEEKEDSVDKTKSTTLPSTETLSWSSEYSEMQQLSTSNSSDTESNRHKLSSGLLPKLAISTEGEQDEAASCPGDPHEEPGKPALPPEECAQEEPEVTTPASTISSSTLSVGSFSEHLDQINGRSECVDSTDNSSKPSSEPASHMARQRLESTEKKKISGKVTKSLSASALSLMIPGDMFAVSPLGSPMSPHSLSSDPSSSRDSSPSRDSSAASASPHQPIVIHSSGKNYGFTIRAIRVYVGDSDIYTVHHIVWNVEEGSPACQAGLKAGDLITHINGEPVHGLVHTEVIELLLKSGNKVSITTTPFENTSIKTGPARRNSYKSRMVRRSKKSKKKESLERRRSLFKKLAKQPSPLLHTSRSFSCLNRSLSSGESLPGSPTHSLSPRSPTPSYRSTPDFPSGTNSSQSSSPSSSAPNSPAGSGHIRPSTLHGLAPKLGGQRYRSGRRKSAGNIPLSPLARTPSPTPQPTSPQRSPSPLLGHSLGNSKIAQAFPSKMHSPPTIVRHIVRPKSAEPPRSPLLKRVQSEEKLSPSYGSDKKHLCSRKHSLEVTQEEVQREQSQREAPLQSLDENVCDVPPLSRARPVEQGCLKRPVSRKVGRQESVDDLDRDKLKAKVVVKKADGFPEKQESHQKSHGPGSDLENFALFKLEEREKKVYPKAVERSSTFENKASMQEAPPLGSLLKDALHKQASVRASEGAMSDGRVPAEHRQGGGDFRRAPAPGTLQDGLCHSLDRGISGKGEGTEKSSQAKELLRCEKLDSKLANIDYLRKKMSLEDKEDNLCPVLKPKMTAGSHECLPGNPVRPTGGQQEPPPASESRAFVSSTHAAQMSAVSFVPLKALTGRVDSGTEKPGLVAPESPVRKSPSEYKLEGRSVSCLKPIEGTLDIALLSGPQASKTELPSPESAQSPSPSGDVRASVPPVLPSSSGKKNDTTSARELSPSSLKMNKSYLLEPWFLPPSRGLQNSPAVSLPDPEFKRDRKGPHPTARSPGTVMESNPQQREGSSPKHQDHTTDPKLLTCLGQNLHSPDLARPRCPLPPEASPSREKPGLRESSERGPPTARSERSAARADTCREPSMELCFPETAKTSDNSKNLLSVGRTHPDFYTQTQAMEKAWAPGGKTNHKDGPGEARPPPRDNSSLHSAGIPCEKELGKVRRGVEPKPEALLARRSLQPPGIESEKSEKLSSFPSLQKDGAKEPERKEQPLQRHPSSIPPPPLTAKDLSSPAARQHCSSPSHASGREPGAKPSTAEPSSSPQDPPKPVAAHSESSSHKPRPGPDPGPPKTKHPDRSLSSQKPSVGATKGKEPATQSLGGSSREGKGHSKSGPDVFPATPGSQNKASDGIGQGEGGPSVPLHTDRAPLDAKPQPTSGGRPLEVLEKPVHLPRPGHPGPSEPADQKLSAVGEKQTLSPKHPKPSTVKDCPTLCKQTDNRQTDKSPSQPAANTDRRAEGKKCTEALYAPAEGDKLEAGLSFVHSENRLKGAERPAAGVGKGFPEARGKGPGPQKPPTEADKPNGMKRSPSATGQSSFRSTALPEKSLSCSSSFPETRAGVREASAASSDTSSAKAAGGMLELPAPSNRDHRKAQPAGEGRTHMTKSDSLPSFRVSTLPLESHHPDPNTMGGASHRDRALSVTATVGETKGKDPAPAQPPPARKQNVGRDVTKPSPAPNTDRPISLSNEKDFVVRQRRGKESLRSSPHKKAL", "description": "as §1"}, "STK3": {"target": "T4, STK3 (Homo sapiens, UniProt Q13188)", "T4 construct": "endogenous in cells; host or cells: K562 cell lysate", "T4 sequence (Q13188 1-491)": "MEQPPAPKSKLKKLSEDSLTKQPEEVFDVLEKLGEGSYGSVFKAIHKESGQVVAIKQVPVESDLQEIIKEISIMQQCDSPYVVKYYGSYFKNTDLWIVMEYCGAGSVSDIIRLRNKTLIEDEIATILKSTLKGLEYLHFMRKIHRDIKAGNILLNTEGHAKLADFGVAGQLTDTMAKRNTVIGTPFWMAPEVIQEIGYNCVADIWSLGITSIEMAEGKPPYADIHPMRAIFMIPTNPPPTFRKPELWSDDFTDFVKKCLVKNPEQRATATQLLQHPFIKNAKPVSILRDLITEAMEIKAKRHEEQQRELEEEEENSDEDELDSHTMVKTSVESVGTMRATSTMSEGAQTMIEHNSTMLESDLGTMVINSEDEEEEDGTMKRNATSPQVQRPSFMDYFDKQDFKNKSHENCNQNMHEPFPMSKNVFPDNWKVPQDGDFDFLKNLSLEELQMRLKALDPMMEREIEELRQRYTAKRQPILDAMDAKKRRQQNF", "description": "as §1"}, "ULK3": {"target": "T5, ULK3 (Homo sapiens, UniProt Q6PHR2)", "T5 construct": "endogenous in cells; host or cells: K562 cell lysate", "T5 sequence (Q6PHR2 1-472)": "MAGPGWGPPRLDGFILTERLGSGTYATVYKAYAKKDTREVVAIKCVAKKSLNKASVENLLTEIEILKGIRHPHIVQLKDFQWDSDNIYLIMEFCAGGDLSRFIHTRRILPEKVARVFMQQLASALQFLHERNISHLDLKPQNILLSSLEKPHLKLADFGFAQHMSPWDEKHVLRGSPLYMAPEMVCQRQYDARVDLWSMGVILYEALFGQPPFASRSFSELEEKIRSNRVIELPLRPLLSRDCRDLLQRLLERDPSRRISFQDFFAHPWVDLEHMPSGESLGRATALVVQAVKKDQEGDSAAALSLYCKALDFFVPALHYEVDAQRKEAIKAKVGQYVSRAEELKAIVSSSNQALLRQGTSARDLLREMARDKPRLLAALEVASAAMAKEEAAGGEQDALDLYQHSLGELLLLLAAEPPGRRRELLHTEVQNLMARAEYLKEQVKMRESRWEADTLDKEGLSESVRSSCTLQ", "description": "as §1"}, "SCYL1": {"target": "T6, SCYL1 (Homo sapiens, UniProt Q96KG9)", "T6 sequence (Q96KG9 1-808)": "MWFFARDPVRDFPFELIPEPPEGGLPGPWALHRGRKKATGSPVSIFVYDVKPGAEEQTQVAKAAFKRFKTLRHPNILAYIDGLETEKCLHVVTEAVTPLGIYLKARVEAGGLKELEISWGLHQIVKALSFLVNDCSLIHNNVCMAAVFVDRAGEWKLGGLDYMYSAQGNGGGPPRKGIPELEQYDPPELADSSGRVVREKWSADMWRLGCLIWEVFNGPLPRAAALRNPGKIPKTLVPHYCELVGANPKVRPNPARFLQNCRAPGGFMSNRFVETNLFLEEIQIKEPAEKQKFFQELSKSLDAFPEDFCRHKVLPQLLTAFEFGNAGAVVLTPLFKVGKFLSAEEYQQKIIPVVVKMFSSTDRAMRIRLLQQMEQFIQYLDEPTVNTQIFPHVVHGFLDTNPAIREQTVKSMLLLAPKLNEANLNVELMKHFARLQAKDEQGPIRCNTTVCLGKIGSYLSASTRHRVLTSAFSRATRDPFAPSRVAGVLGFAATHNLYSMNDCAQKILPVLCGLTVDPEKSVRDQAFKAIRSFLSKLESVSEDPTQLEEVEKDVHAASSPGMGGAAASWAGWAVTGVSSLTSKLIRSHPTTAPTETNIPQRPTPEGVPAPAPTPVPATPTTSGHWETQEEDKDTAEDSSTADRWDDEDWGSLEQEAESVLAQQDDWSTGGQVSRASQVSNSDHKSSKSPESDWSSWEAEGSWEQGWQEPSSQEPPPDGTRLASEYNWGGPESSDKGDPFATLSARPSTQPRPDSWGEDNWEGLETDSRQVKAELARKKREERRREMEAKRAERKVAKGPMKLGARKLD", "parameters": "endogenous in cells; host or cells: K562", "description": "as §1"}, "[1]": {"settings": "KAM 0.001-10 uM, read-out: RB50 (the source's name)"}, "[2]": {"settings": "read-out: RB50 (the source's name)"}},
  "data": [
    {"smiles": "N#CCc1ccc(Nc2nc(NCCCN)cc(Nc3cc(C4CC4)[nH]n3)n2)cc1", "note": "[KAM]", "values": [
      {"measurement": "IC50", "setting": "CLK2; [1]", "result": "> 10", "unit": "µM"},
      {"measurement": "0.001 uM KAM", "setting": "CLK2; relative to 0 uM KAM = 0", "result": -0.009153},
      {"measurement": "0.01 uM KAM", "setting": "CLK2; relative to 0 uM KAM = 0", "result": 0.05043},
      {"measurement": "0.1 uM KAM", "setting": "CLK2; relative to 0 uM KAM = 0", "result": -0.05281},
      {"measurement": "1 uM KAM", "setting": "CLK2; relative to 0 uM KAM = 0", "result": -0.09929},
      {"measurement": "10 uM KAM", "setting": "CLK2; relative to 0 uM KAM = 0", "result": -0.1362},
      {"measurement": "IC50", "setting": "MAPK7; [1]", "result": "> 10", "unit": "µM"},
      {"measurement": "0.001 uM KAM", "setting": "MAPK7; relative to 0 uM KAM = 0", "result": -0.02869},
      {"measurement": "0.01 uM KAM", "setting": "MAPK7; relative to 0 uM KAM = 0", "result": 0.01229},
      {"measurement": "0.1 uM KAM", "setting": "MAPK7; relative to 0 uM KAM = 0", "result": -0.142},
      {"measurement": "1 uM KAM", "setting": "MAPK7; relative to 0 uM KAM = 0", "result": -0.1326},
      {"measurement": "10 uM KAM", "setting": "MAPK7; relative to 0 uM KAM = 0", "result": -0.1898},
      {"measurement": "median Log10 fold change", "setting": "MAST4; 0.001 uM KAM", "result": -0.03696},
      {"measurement": "median Log10 fold change", "setting": "MAST4; 0.01 uM KAM", "result": 0.002822},
      {"measurement": "median Log10 fold change", "setting": "MAST4; 0.1 uM KAM", "result": -0.135},
      {"measurement": "median Log10 fold change", "setting": "MAST4; 1 uM KAM", "result": -0.3289},
      {"measurement": "median Log10 fold change", "setting": "MAST4; 10 uM KAM", "result": -0.3337},
      {"measurement": "IC50", "setting": "MAST4; [2]", "result": 1.26, "unit": "µM"},
      {"measurement": "median Log10 fold change", "setting": "STK3; 0.001 uM KAM", "result": -0.01987},
      {"measurement": "median Log10 fold change", "setting": "STK3; 0.01 uM KAM", "result": -0.0374},
      {"measurement": "median Log10 fold change", "setting": "STK3; 0.1 uM KAM", "result": -0.2245},
      {"measurement": "median Log10 fold change", "setting": "STK3; 1 uM KAM", "result": -0.1979},
      {"measurement": "median Log10 fold change", "setting": "STK3; 10 uM KAM", "result": -0.3452},
      {"measurement": "IC50", "setting": "STK3; [2]", "result": 3.72, "unit": "µM"},
      {"measurement": "median Log10 fold change", "setting": "ULK3; 0.001 uM KAM", "result": 0.008102},
      {"measurement": "median Log10 fold change", "setting": "ULK3; 0.01 uM KAM", "result": 0.009404},
      {"measurement": "median Log10 fold change", "setting": "ULK3; 0.1 uM KAM", "result": -0.1871},
      {"measurement": "median Log10 fold change", "setting": "ULK3; 1 uM KAM", "result": -0.4491},
      {"measurement": "median Log10 fold change", "setting": "ULK3; 10 uM KAM", "result": -0.5442},
      {"measurement": "IC50", "setting": "ULK3; [2]", "result": 0.405, "unit": "µM"},
      {"measurement": "IC50", "setting": "SCYL1; [1]", "result": "> 10", "unit": "µM"},
      {"measurement": "0.001 uM KAM", "setting": "SCYL1; relative to 0 uM KAM = 0", "result": 0.01527},
      {"measurement": "0.01 uM KAM", "setting": "SCYL1; relative to 0 uM KAM = 0", "result": 0.01732},
      {"measurement": "0.1 uM KAM", "setting": "SCYL1; relative to 0 uM KAM = 0", "result": 0.09163},
      {"measurement": "1 uM KAM", "setting": "SCYL1; relative to 0 uM KAM = 0", "result": 0.1255},
      {"measurement": "10 uM KAM", "setting": "SCYL1; relative to 0 uM KAM = 0", "result": 0.1065}
    ]}
  ]
}
